For experiment [1], the system named is esophageal cancer PDX model. Briefly: In vivo pharmacodynamics, esophageal cancer PDX model. Details: species or system female BALB/c nude mouse. As to conditions: 150 mg/kg PO QD 21 days. The method, then:
Tumor tissues were harvested from tumor-bearing mice of esophageal cancer PDX model, cut into pieces with diameter of 2-4 mm and seeded subcutaneously to right lateral thorax of female BALB/c nude mouse. When the tumors' average volume reached about 150 mm^3, the animals were grouped and administered with a drug. Compound 1 was orally administrated once a day at an amount of 150 mg/kg, for 21 days. The volume of the drug for administration is 0.1 mL/10 g according to animal's body weight.
Tumor volume was measured with vernier calipers twice a week by measuring the major diameter and the minor diameter. The tumor volume is calculated by the following formula: volume=0.5×(major diameter)×(minor diameter)^2. The relative tumor volume (RTV) and the proliferation ratio (T/C) were calculated according to the result of measurement. RTV=Vt/V0, wherein Vt is the average tumor volume on the t day after grouping, and V0 is the average tumor volume on the day of grouping. T/C (%)=RTV of treatment group/RTV of solvent control group×100%.
One-way ANOVA was used for analysing the group statistical analysis of tumor volumes. p<0.05 was regarded as having significant difference.

For experiment [2], the target named is CDK6/D3 (Homo sapiens, UniProt Q00534). As to the kind of experiment: In vitro enzyme-inhibiting activity, Caliper Mobility Shift method. To be noted: read-out: CDK enzyme-inhibiting activity IC50 CDK6/D3. The class given is biochemical.
CDK6/D3, sequence (Q00534 whole entry): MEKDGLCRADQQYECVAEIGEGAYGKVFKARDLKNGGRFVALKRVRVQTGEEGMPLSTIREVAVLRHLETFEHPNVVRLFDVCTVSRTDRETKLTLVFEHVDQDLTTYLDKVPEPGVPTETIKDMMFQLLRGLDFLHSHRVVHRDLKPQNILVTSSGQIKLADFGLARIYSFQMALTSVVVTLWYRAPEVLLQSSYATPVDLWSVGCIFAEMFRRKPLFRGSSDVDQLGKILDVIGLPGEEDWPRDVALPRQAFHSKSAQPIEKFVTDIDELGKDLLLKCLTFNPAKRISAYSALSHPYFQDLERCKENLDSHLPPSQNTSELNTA
CDK6/D3, sequence (P30281 whole entry partner): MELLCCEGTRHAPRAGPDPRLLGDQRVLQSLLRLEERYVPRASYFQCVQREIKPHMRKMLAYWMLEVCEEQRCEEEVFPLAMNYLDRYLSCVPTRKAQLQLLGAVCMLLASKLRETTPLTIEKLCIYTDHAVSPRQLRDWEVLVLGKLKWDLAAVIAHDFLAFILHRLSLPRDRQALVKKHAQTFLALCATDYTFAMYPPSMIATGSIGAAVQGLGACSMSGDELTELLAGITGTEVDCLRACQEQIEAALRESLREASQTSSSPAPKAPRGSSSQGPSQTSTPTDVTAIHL
Experimental: Measurement of activity for inhibiting CDK4/6 kinase by Caliper Mobility Shift method.
50 mL stock solution containing 1000 mM HEPES (pH 7.5), and 50 μL stock solution containing 30% Brij-35, were added to 949.95 mL ultra pure water, and the resultant mixture was mixed homogeneously.
25 mL stock solution containing 4% Coating Reagent #3 (provided with the 12-sipper chip used in Caliper device), 50 mL stock solution containing 1000 mM HEPES (pH 7.5), 50 mL stock solution containing 0.5 M EDTA, and 0.25 mL stock solution containing 30% Brij-35, were added to 374.75 mL ultra pure water, and the resultant mixture was mixed homogeneously.
18 μL CDK6/D3 enzyme solution, and 14 μL stock solution containing 1M DTT were added to 2768 μL 1-fold CDK6 kinase buffer, and the resultant mixture was mixed homogeneously.
23 μL stock solution containing 100 mM ATP, 75 μL stock solution containing 1M MgCl2, and 75 μL FAM-tagged polypeptide 8, were added to 2827 μL 1-fold CDK6 kinase buffer, and the resultant mixture was mixed homogeneously.
DMSO solution containing 10 mM test compound was diluted with DMSO to a solution containing 50 μM test compound (which was used as a stock solution).
1) 5 μL 5-fold test compound solution and 10 μL 2.5-fold kinase solution were added to the corresponding wells in a 384-well plate, and incubated at room temperature for 10 min.
2) To the corresponding wells, 10 μL 2.5-fold polypeptide solution was added to start the enzymatic reaction, and incubation was performed at 28° C. for 5 h.
To the corresponding wells, 25 μL stop solution was added to stop the reaction.
The data was read by Caliper device, the inhibition rate was calculated by the following formula, and curve fitting was carried out by GraphPad5.0 software to get IC50 value. Inhibition rate=(maximal value−sample value)/(maximal value−minimal value)×100, wherein, maximal value: positive control without addition of test compound; minimal value: negative control without addition of enzyme.
The test system of experiment [3] is HGC-27 gastric cancer cell. Briefly: BrdU cell proliferation assay (Cell Signaling kit). The class given is cell-based. As to conditions: Homo sapiens, HGC-27, 72 h; read-out: In vitro cell-inhibiting activity IC50 HGC-27. The method, then: (§1) Experimental method: cell proliferation assay was carried out by BrdU method (BrdU cell proliferation assay kit, Cell Signaling Technology Company).
(§2) Preparation of gradient dilution solutions of test compound: the stock solution containing 10 mM test compound was subjected to 4-fold stepwise dilution with DMSO to prepare solutions containing 2.5 mM, 625 μM, 156 μM, 39 μM, 9.8 μM, and 2.5 μM test compound, respectively. 2 μL DMSO-diluted compound was added to 198 μL culture medium containing 10% FBS to prepare […] test compound, wherein the maximum concentration of the test compound was 100 μM, the concentration of DMSO was 1%, and there were 7 concentration gradients.
HGC-27 medium: DMEM+10% FBS
(1) Cells grown to 80% confluence (in exponential growth phase) were digested with pancreatin, and centrifuged to collect the cells. Cells were re-suspended in FBS-free culture medium, counted, and seeded to a 96-well plate at 4000 cells/well/81 μL. The plates were placed in a cell incubator at 37° C.
(2) After 24 h culture, 9 μL FBS was added to each well to reach a final FBS concentration of 10%. […]
(9) To each well, 100 μL stop solution was added, and OD value at 450 nm was measured by ELISA instrument 3. […]

Experiment [4] concerns U87MG human glioblastoma cell. Briefly: BrdU cell proliferation assay (Cell Signaling kit). The class given is cell-based. As to conditions: U-87 MG, 72 h, read-out: In vitro cell-inhibiting activity IC50 U87MG. The method, then: as §1, §2
U87MG medium: MEM+10% FBS
(§3) (1) Cells grown to 80% confluence (in exponential growth phase) were digested with pancreatin, and centrifuged to collect the cells. MDA-MB-435S and U87MG cells were re-suspended in FBS-free culture medium, counted, and seeded to a 96-well plate; MDA-MB-435S cells were seeded at 3000 cells/well/81 μL; U87MG cells were seeded at 4000 cells/well/81 MCF-7 cells were resuspended in culture medium containing 1% FBS, and counted and seeded to a 96-well plate, at 4000 cell/well/82 μL. The plates were placed in a cell incubator at 37° C. […]
(§4) (9) To each well, stop solution (100 μL) was added, and OD value at 450 nm was measured by ELISA instrument […]

The subject of experiment [5] is MDA-MB-435S human melanoma cell. Briefly: BrdU cell proliferation assay (Cell Signaling kit). The class given is cell-based. As to conditions: 72 h, read-out: In vitro cell-inhibiting activity IC50 MDA-MB-435S. The method, then: as §1, §2
MDA-MB-435S medium: L-15+10% FBS+0.01 mg/mL insulin
as §3, §4

`CCN1CCN(Cc2cnc(Nc3cc(-c4cc(F)c5nc(C)n(C(C)C)c5c4)c(F)cn3)nc2)CC1` [Compound 1, 5-((4-ethylpiperazin-1-yl)methyl)-N-(5-fluoro-4-(4-fluoro-1-isopropyl-2-methyl-1H-benzo[d]imidazol-6-yl)pyridin-2-yl)pyrimidin-2-amine]: the “T/C (proliferation ratio)” value in experiment [1] (150 mg/kg) stood at 29%. For the same compound, the “Tumor volume after administration” value in experiment [1] (average ± standard error) is 221.6 ± 27.2 mm^3. In addition, the “Tumor volume before administration” value in experiment [1] (average ± standard error) came to 177.7 ± 28.5 mm^3. The IC50 turned out to be 0.016 µM in experiment [2] and 0.316 µM in experiment [3].

For the compound `CCN1CCN(Cc2ccc(Nc3ncc(F)c(-c4cc(F)c5nc(C)n(C(C)C)c5c4)n3)nc2)CC1` [LY2835219, reference compound], the IC50 worked out at 0.04 µM in experiment [4] and 0.2 µM in experiment [5].

The values above are taken from patent publication US9949976B2, “Kinase inhibitor and use thereof” (Sihuan Pharmaceutical Holdings Group Ltd., priority 2013, dated 2018).
